Several values for one entry are separate records, joined by “and”; a condition that tells them apart may be missing. Equal entries are not always repeated.
Assays:
[1] = Molar enthalpy of transition or fusion; details: DSC
[2] = molar heat capacity at constant pressure
[3] = for vapor or sublimation pressure: Closed cell (Static) method; for Normal melting temperature / Triple point temperature: DTA

CC1(C)[C@H]2CC[C@]1(C)C(=O)C2 [(1S)-1,7,7-trimethylbicyclo[2.2.1]heptan-2-one]
Details	Molar enthalpy of transition or fusion, Crystal 1 [kcal/mol]	Molar enthalpy of transition or fusion, Crystal 2 [kcal/mol]	Molar enthalpy of transition or fusion, Crystal 3 [kcal/mol]	Normal melting temperature, Crystal 1 [°C]	Triple point temperature, Crystal 2 [K]	Triple point temperature, Crystal 3 [K]
[1]	1.17	0.0478	2.63	–	–	–
[3]	–	–	–	175.4	373.4	243.9

[2], 101.33 kPa, Crystal 2, Large sample (1 g) DSC
Details	molar heat capacity at constant pressure [J/K/mol]
273.4 K	241
278.5 K	242
283.6 K	243
288.7 K	244.9
293.8 K	246.6
298.9 K	248.9
304 K	251
309.1 K	253.2
314.2 K	255.5
319.4 K	256.9
324.5 K	259.7
329.6 K	262.5
334.7 K	264.8
339.8 K	267.2
344.9 K	270.5
350 K	273.6
355.1 K	276.7

[3], Crystal 2
Details	vapor or sublimation pressure
273.65 K	0.00359 kPa and 0.003604 kPa and 0.003606 kPa
278.15 K	0.005406 kPa and 0.005414 kPa and 0.00542 kPa
283.15 K	0.008302 kPa and 0.008322 kPa and 0.008324 kPa
288.15 K	0.01261 kPa and 0.01262 kPa and 0.0126 kPa
293.15 K	0.01883 kPa and 0.01885 kPa and 0.01888 kPa
298.15 K	0.02802 kPa and 0.02806 kPa and 0.02812 kPa
303.15 K	0.04122 kPa and 0.04127 kPa
308.15 K	0.05983 kPa and 0.05985 kPa and 0.05989 kPa

C=C1C2CCC(C2)C1(C)C (stereo not drawn) [2,2-dimethyl-3-methylenebicyclo[2.2.1]heptane]
Crystal
Details	Molar enthalpy of transition or fusion [kcal/mol]	Normal melting temperature [°C]
[1]	0.645	–
[3]	–	44.5

[2], 101.33 kPa, Large sample (1 g) DSC
Details	molar heat capacity at constant pressure [J/K/mol]
258.1 K, Crystal	211.1
263.2 K, Crystal	213.9
268.3 K, Crystal	216.8
273.4 K, Crystal	219.8
278.5 K, Crystal	222.7
283.6 K, Crystal	225.7
288.7 K, Crystal	228.8
293.8 K, Crystal	231.9
298.9 K, Crystal	235.1
324.5 K, Liquid	251.5
329.6 K, Liquid	254.5
334.7 K, Liquid	257.4
339.8 K, Liquid	259.8
344.9 K, Liquid	262.3
350 K, Liquid	265.6
355.1 K, Liquid	269.3

[3], Crystal
Details	vapor or sublimation pressure
238.15 K	0.003435 kPa and 0.003436 kPa
243.15 K	0.005761 kPa and 0.005765 kPa and 0.005768 kPa
248.15 K	0.00946 kPa and 0.009464 kPa and 0.009473 kPa
253.15 K	0.01527 kPa
258.15 K	0.0241 kPa and 0.02413 kPa
263.15 K	0.03746 kPa and 0.03747 kPa
268.15 K	0.05698 kPa and 0.05699 kPa
273.15 K	0.08514 kPa and 0.08515 kPa and 0.08516 kPa
273.65 K	0.0885 kPa and 0.08853 kPa and 0.08854 kPa
278.15 K	0.1252 kPa
283.15 K	0.1811 kPa
288.15 K	0.2585 kPa and 0.2586 kPa and 0.2587 kPa
293.15 K	0.3628 kPa and 0.363 kPa and 0.3631 kPa
298.15 K	0.5037 kPa and 0.5038 kPa and 0.5039 kPa
303.15 K	0.6891 kPa and 0.6896 kPa and 0.69 kPa
308.15 K	0.934 kPa and 0.9343 kPa and 0.9345 kPa

CC1(C)C(=O)[C@@]2(C)CC[C@@H]1C2 [(+)-fenchone]
Details	Molar enthalpy of transition or fusion, [1] [kcal/mol]	Normal melting temperature, [3] [°C]	Triple point temperature, [3] [K]
Crystal 1	–	5.5	–
Crystal 2	4.16	–	278

[2], 101.33 kPa
Details	molar heat capacity at constant pressure [J/K/mol]
273.4 K, Metastable liquid, Large sample (1 g) DSC	259.6
278.5 K, Metastable liquid, Large sample (1 g) DSC	260.7
283.6 K, Large sample (1 g) DSC, Liquid	263.6
288.7 K, Large sample (1 g) DSC, Liquid	264.6
293.8 K, Large sample (1 g) DSC, Liquid	266.6
298.9 K, Large sample (1 g) DSC, Liquid	269.8
304 K, Large sample (1 g) DSC, Liquid	271.8
309.1 K, Large sample (1 g) DSC, Liquid	274.4
314.2 K, Large sample (1 g) DSC, Liquid	277
319.4 K, Large sample (1 g) DSC, Liquid	278.9
324.5 K, Large sample (1 g) DSC, Liquid	281.7
329.6 K, Large sample (1 g) DSC, Liquid	284.7
334.7 K, Large sample (1 g) DSC, Liquid	287.3
339.8 K, Large sample (1 g) DSC, Liquid	289.9
344.9 K, Large sample (1 g) DSC, Liquid	292.7
350 K, Large sample (1 g) DSC, Liquid	295.6
355.1 K, Large sample (1 g) DSC, Liquid	298.8

[3]
Details	vapor or sublimation pressure
238.15 K, Crystal 2	0.00014 kPa and 0.000141 kPa and 0.000142 kPa
243.15 K, Crystal 2	0.000277 kPa and 0.000278 kPa
243.15 K, Metastable liquid	0.000763 kPa and 0.000764 kPa
248.15 K, Crystal 2	0.000547 kPa and 0.000548 kPa
248.15 K, Metastable liquid	0.001307 kPa and 0.001308 kPa
253.15 K, Crystal 2	0.001053 kPa and 0.001054 kPa
253.15 K, Metastable liquid	0.002188 kPa and 0.002189 kPa
258.15 K, Crystal 2	0.001988 kPa and 0.001991 kPa and 0.001993 kPa
258.15 K, Metastable liquid	0.003604 kPa and 0.003605 kPa
263.15 K, Crystal 2	0.0037 kPa and 0.003705 kPa
263.15 K, Metastable liquid	0.005827 kPa and 0.005828 kPa and 0.005829 kPa
268.15 K, Crystal 2	0.006751 kPa and 0.006753 kPa
268.15 K, Metastable liquid	0.009242 kPa and 0.009244 kPa and 0.009246 kPa
273.15 K, Crystal 2	0.01206 kPa
273.15 K, Metastable liquid	0.01436 kPa
278.15 K, Crystal 1	0.02111 kPa and 0.02112 kPa
278.15 K, Metastable liquid	0.02193 kPa and 0.02194 kPa
283.15 K, Liquid	0.03289 kPa and 0.0329 kPa and 0.03291 kPa
288.15 K, Liquid	0.04842 kPa and 0.04845 kPa
293.15 K, Liquid	0.07036 kPa and 0.07037 kPa
298.15 K, Liquid	0.1007 kPa and 0.1008 kPa
303.15 K, Liquid	0.1421 kPa
308.15 K, Liquid	0.1977 kPa and 0.1978 kPa

CC1(C)[C@H]2CC[C@]1(C)[C@H](O)C2 [(1S-endo)-1,7,7-trimethylbicyclo[2.2.1]heptan-2-ol]
Details	Molar enthalpy of transition or fusion, [1] [kcal/mol]	Normal melting temperature, [3] [°C]	Triple point temperature, [3] [K]
Crystal 1	1.74	207.2	–
Crystal 2	0.765	–	347.9

[2], 101.33 kPa, Crystal 2, Large sample (1 g) DSC
Details	molar heat capacity at constant pressure [J/K/mol]
273.4 K	237.9
278.5 K	241.9
283.6 K	246.4
288.7 K	250.5
293.8 K	255.4
298.9 K	261.2
304 K	266.7
309.1 K	272.5
314.2 K	279
319.4 K	286.1
324.5 K	293.6
329.6 K	302
334.7 K	311

[3], Crystal 2
Details	vapor or sublimation pressure
273.65 K	0.000211 kPa and 0.000212 kPa
278.15 K	0.00036 kPa and 0.000361 kPa
283.15 K	0.000638 kPa and 0.000639 kPa
288.15 K	0.001105 kPa and 0.001106 kPa and 0.001104 kPa
293.15 K	0.001882 kPa and 0.001883 kPa
298.15 K	0.003159 kPa and 0.003161 kPa and 0.003162 kPa
303.15 K	0.005213 kPa and 0.005214 kPa and 0.005215 kPa
308.15 K	0.008461 kPa and 0.008464 kPa and 0.008465 kPa

Reference: the NIST ThermoML archive (doi:10.1016/j.jct.2013.12.012)
